Results reported in patent publication US10150792B2, “Bismuth-containing compounds, coordination polymers, methods for modulating pharmacokinetic properties of biologically active agents, and methods for treating patients” (priority 2010, dated 2018).

Legend:
in vivo = conditions: rat
Method: Method for Rat Pharmacokinetic Studies: Rat “feed and bleed” studies were performed with LD and synthetically prepared LD:metal complexes wherein key PK parameters, such as maximum concentration (Cmax), AUC, and time of maximum concentration (tmax) were measured vis-à-vis the reference drug, LD.
In each experiment, male Sprague-Dawley rats with jugular vein catheters (250-300 g; n=5-10) are used. These rats were obtained from a commercial source (Harlan Laboratory Animals, Dublin, Va.) and housed individually. Water was available ad libitum. Rats were fed certified rodent chow ad libitum. After arrival, the health of rats was assessed and animals were placed in quarantine for a minimum of five days during which time general health was assessed. At the end of quarantine, rats were moved to permanent animal quarters for access and study.
All studies employed oral dosing using size 9 rodent gelatin capsules from Torpac (Fairfield, N.J.). After fasting overnight, the rats are dosed at time zero with periodic blood sampling from the catheter (5-8 time points between 0 and 24 hours). Blood (200-300 μL) is drawn and collected in heparinized tubes. Plasma is separated by centrifugation and stored at −20° C. until work-up. Plasma samples are then treated according to developed methodology (e.g., FEBS Lett., 2002, 524 (1-3), 199-203), and analyzed (LC/MS/MS) for drug concentrations. Average plasma values (±SEM) for each time are calculated and PK parameters, including Cmax, tmax, and total amount absorbed (AUC0-6h), are determined using standard software.
Each study employs a crossover design whereby the LD and a metal:LD complex are tested in the same rats with a 5-day wash-out period separating the two experiments.

[1] = high orally administered doses; cited from earlier work

## N[C@@H](Cc1ccc(O)c(O)c1)C(=O)O [LD, levodopa, reference compound]
In vivo; male, Sprague-Dawley, in vivo, po
  Cmax: 17 µM
In vivo; male, Sprague-Dawley, in vivo, po, 20 mg/kg
  Tmax: 20 min

## O=C(O)C(Cl)Cl [DCA, dichloroacetate]
[1]
  Fraction absorbed: 100%

## tris(LD)bismuth oxide [Bi(O)(dopa)3]
In vivo; FIG. 13, oral, equivalent to 20 mg/kg LD + carbidopa 10 mg/kg, sampling to 3 hours
  Course of LD plasma levels: remained at or near their peak levels for the duration of the study
In vivo; FIGS. 13 and 14, oral, equivalent to 20 mg/kg LD + carbidopa 10 mg/kg
  LD plasma level at 3 hours: 10 nmol/mL
